In US4055640A, “Compositions and methods for controlling the growth of bacteria, fungi and algae using certain derivatives of N-(2,2-dichlorovinyl)salicylamides” (Nippon Kayaku Co., Ltd., priority 1975, dated 1977):

What was measured:
[1] = tested on: Fusarium wilt of cucumber; test: Exterminating test on Fusarium wilt of cucumber (Experimental Example 4); assay type: in vivo, Fusarium oxysporum f, cucumerinum; conditions: 500 ppm, soil drench 100 ml per pot, two weeks
Experimental: Exterminating test on Fusarium wilt of cucumber Twenty (20) grams of infected soil was added uniformly into each pot which was filled with steam sterilized field soil, then 18 seeds of cucumber (variety; Tokiwazibai) were sowed in each pot. Eighty percent (80%) wettable powder of the present invention was diluted with water to obtain a suspension, and each pot was drenched with the suspension in an amount of 100 ml. Fifty percent (50%) wettable powder of methyl-1-(butylcarbamoyl) 2-benzimidazol carbamate (hereinafter referred to as Benlate) on the market was used as a control and tested by the same method. After two weeks of planting, degrees attacked by the pathogen was observed and a "percentage of healthy seedlings" was calculated as follows: [formula]

[2] = tested on: Aspergillus niger, Penicillium citrinum, Cladosporium harbarum and chaetomium globosum; test: Degree of growth inhibition of fungi on treated beach plates (Example 17); assay type: cell-based; set-up: scale not given here; conditions: numerical rating, 2 weeks
Experimental: The emulsifiable concentrates which were prepared by Example 10 were diluted with water 400 times and 800 times to form emulsions.
(§1) The square plates of beach of which a side was 5 cm long and thickness was 5 mm were dipped into the emulsion for 2 minutes and dried for 24 hours at room temperature.
(§2) The square plates were placed on the surface of agar plates. The suspensions which contained spores of Aspergillus niger, Penicillium citrinum, Cladosporium harbarum and chaetomium globosum were respectively sprayed on the agar plates and the square plates.
The test fungi were cultivated in the incubator at the humidity of 95% and the temperature of 28° C for 2 weeks.
The degree of growth inhibition is defined in terms of the following numerical ratings.

summer orange seedlings = test: Phytotoxicity on summer orange seedlings (Experimental Example 6); assay type: in vivo; conditions: 1,000 ppm
Experimental: (§3) Exterminating test on citrus canker. 4-year-old summer orange seedlings, planted in unglazed pots having a diameter of 20 cm, were employed in this test. Eighty percent (80%) wettable powder of the present invention was diluted with water, and sprayed over the seedlings in an amount of 50 ml per pot. The leaves of the seedlings were inoculated Xanthomonas citri by means of a needle. After the inoculation, the seedlings were maintained in a moist chamber at 25° C for 24 hours. Then the pots were transferred into the greenhouse. Streptomycin 20% wettable powder was used as a control, and tested by the same method. After 2 weeks after the inoculation, degrees of disease attack were observed, and an "Effect Index" was calculated as follows: [formula]

[3] = tested on: Xanthomonas citri (citrus canker); test: Exterminating test on citrus canker (Experimental Example 6); assay type: in vivo
Experimental: as §3

Escherichia coli = test: Minimum inhibitory concentration, dilution methods (Example 14); assay type: cell-based; conditions: (3) glucose bouillon medium dilution method
Text: (§4) Bacteriocidal activity and fungicidal activity of the active compounds of the present invention were examined by potato-dextrose agar dilution method, [2] waxman's liquid medium dilution method or [3] glucose bouillon medium dilution method. The results are shown in Table 4 below as the minimum inhibitory concentration (the minimum concentration of active compound found to produce 100% control of the test bacteria and fungi).

Cladosporium harbarum = test: as above; assay type: cell-based; conditions: (1) potato-dextrose agar dilution method
Text: as §4

Staphylococcus aureus = test: as above; assay type: cell-based; conditions: (3) glucose bouillon medium dilution method
Text: as §4

Aspergillus niger [4] = test: as above; assay type: cell-based; conditions: (1) potato-dextrose agar dilution method
Text: as §4

Bacillus subtilis [5] = test: as above; assay type: cell-based; conditions: (3) glucose bouillon medium dilution method
Text: as §4

Penicillium Citrinum [6] = test: as above; assay type: cell-based; conditions: (1) potato-dextrose agar dilution method
Text: as §4

[7] = tested on: Rhizoctonia solani (damping-off of cucumber); test: Exterminating test on damping-off of cucumber (Experimental Example 3); assay type: in vivo; conditions: soil drench 50 ml per pot, 10 days
Experimental: Exterminating test on damping-off of cucumber
The pots (diameter, 12 cm) were filled with field soil and then soil infected by adding Rhizoctonia solani in an amount of 5 grams per pot uniformly into the pots. Thereafter, 10 seeds of cucumber (variety: Azumamidori) were sown in each pot.
Eighty percent (80%) wettable powder of the present invention was diluted with water to obtain a suspension and each pot was drenched with the suspension in an amount of 50 milliliters. Then, the pots were transferred to the greenhouse. Fifty percent (50%) wettable powder of pentachloronitro benzene (hereinafter referred to as PCNB) on the market was used as a control and tested by the same method. After 10 days of the inoculation, degrees attacked by the pathogen were observed and a "Percentage of healthy seedlings" was calculated. The "Percentage of healthy seedlings" was calculated as follows: [formula]

[8] = tested on: Aspergillus niger, Penicillium citrinum, Cladosporium harbarum and chaetomium globosum; test: Degree of growth inhibition of fungi on treated beach plates (Example 25); assay type: cell-based; set-up: scale not given here; conditions: numerical rating, 2 weeks
Experimental: The emulsifiable concentrates which were prepared by Example 20 were diluted with water 400 times and 800 times to form emulsions.
as §1, §2
The test fungi were cultivated in the incubator at the humidity of 95% and the temperature of 28° C for 2 weeks. The degree of growth inhibition is defined in terms of the following numerical ratings.

[9] = tested on: seedling blight of rice plant (pathogen Fusarium sp. and Rhizoctonia sp.); test: Exterminating test on seedling blight of rice plant (Experimental Example 1); assay type: in vivo; conditions: soil, 408 h, 0.25g/box a.i., 5% dust mixed with soil; read-out: Percentage of healthy seedlings
Experimental: Exterminating test on seedling blight of rice plant Nursery boxes (60 × 30 × 3 cm) were filled with soil which were contaminated with pathogen (Fusarium sp. and Rhizoctonia sp.) The dust in which the present compound was contained in a ratio of 5% by weight was added in the box in a ratio of 5 grams per box and mixed well with soil. Thereafter, seeds of rice plant (variety: Nihonbare) were sowed in drills at a rate of 0.3 liter per box and grown up in a lighting chamber at 17° C. After 7 days from the sowing, the boxes were carried out in the field. Furthermore, 10 days thereafter the observations were made. Four percent (4%) dust of 3-hydroxy-5-methyl isoxazol (hereinafter referred to as hydroxyisoxazol) on the market was used as a control and tested by the same method. The test results are shown in Table 2 with a "percentage of healthy seedlings". The percentage of healthy seedlings was calculated as follows: […]

fungi = test: Degree of propagation on slime test boards (Example 27); assay type: cell-based; conditions: same method, shaking culture for 2 days
Experimental: (§5) Zero point zero two (0.02) part of active compounds in the form of 10% water soluble concentrate which was prepared by Example 23 was added into 100 parts of Waxman's liquid medium. Peices of Wood iron (hereafter referred to as the slime test boards) were soaked into the Waxman's liquid medium. The bacteria which were gathered from circular water system were inoculated upon the Waxman's liquid medium and incubated at 27°-34° C by shaking culture for 2 days. The degree of propagation of the bacteria on the slime test boards was examined.
(§6) Thegrowth-inhibiting activity of active compounds against the fungi and the green algae was also examined by the same method as mentioned above.
(§7) The degree of propagation of the bacteria, fungi or green algae on the test boards is defined in terms of the following symbols.

green algae = test: as above; assay type: cell-based; conditions: same method, shaking culture for 2 days
Experimental: as §5, §6, §7

[10] = tested on: bacteria gathered from circular water system; test: as above; assay type: cell-based; conditions: shaking culture for 2 days
Experimental: as §5, §6, §7

Staphylococcus oureus = test: Region of growth-inhibition around treated cotton cloth (Example 26); assay type: cell-based; conditions: emulsifiable concentrate diluted 100 times
Experimental: (§8) The emulsifiable concentrates which were prepared by Example 20 were diluted with water 100 times to form an emulsion. A cloth of cotton was soaked into each emulsion for 2 minutes. The clothes were dried at room temperature and cut into a square of which a side was 1 cm long. Each kind of test bacteria and fungi was inoculated, separately, on plates of potato-agar and one square cloth placed on each of such plates. Test bacteria and fungi were cultivated at 28° C for 4 days. The width of the region of growth-inhibition which was formed a circumference of the cloth was measured.

Aspergillus niger [11] = test: as above; assay type: cell-based; conditions: emulsifiable concentrate diluted 100 times
Experimental: as §8

Bacillus subtilis [12] = test: as above; assay type: cell-based; conditions: emulsifiable concentrate diluted 100 times
Experimental: as §8

Penicillium Citrinum [13] = test: as above; assay type: cell-based; conditions: emulsifiable concentrate diluted 100 times
Experimental: as §8

[14] = tested on: seedlings of kidney beans (variety: Orient); test: Phytotoxicity on kidney beans (Experimental Example 5); assay type: in vivo; conditions: 1,000 ppm
[15] = tested on: cucumber seedlings (variety: Sagamihanjiro); test: Phytotoxicity on cucumber seedlings (Experimental Example 2); assay type: in vivo; conditions: 500 ppm
Experimental: (§9) The cucumber seeds (variety: Sagamihanjiro) were sown in pots (diameter 18 cm). Eighty percent (80%) wettable powder (contents of active compound: 80%) of the present invention was diluted with water to obtain a suspension. The suspension was sprayed over the cucumber seedlings of the stage of 3-4 leaves in an amount of 20 ml per pot. After 24 hours, these pots were inoculated by means of spray of spore suspension of Cladosporium cucumerinum. The thus-inoculated seedlings were placed in a moist chamber at 20° C for 24 hours. The pots were continuously kept in a greenhouse at 20° C. The following wettable powders on the market were used as controls.

[16] = tested on: botrytis cinerea (gray mold); test: Exterminating test on gray mold of tomato (Experimental Example 5); assay type: in vivo; set-up: scale not given here; conditions: 1,000 ppm, 48 hours after inoculation, kidney bean leaves
Experimental: Exterminating test on gray mold of tomato The seedlings of kidney beans (variety: Orient) of 5-6 leaves stage were employed in this test. Eighty percent (80%) wettable powder of the present invention was diluted with water and sprayed over the seedlings in an amount of 10 ml per pot. The leaves were cut from the plant at 24 hours after spraying, and placed in the petri dishes (12 cm in diameter). Thereafter disks (5 mm in diameter) were cut with a cork borer from potato dextrose agar on which the pathogen (botrytis cinerea) was cultured. The disks were placed on the leaves. The dishes were placed in such a moistural condition as to cause the pathogen to propagate. Thiophanate methyl 70% wettable powder on the market was used as a control and tested by the same method. After forty eight (48) hours after inoculation, diameters of the lesions were observed, and an "Effect Index" was calculated as follows; [formula]

[17] = tested on: Cladosporium cucumerinum (cucumber scab); test: Exterminating test on cucumber scab (Experimental Example 2); assay type: in vivo; set-up: scale not given here; conditions: 500 ppm, 5 days after inoculation
Experimental: Exterminating test on cucumber scab
as §9
70% wettable powder of 1,2-bis (3-methoxy carbonyl-2-thioureid) benzene (hereinafter referred to as "thiophanate methyl") on the market.
75% wettable powder of ethylene bis (dithiocarbamic acid) manganese (hereinafter referred to as "maneb") on the market. After 5 days of the inoculation, degrees attached by the pathogen were observed and the results were shown in Table 3 with an "Infected Index". The "Infected Index" was calculated as follows: [formula] A : Number of leaves which were killed by hard attack B : Number of leaves severely attacked
C : number of leaves slightly attacked
D : number of healthy leaves

| SMILES | Phytotoxicity (summer orange seedlings) | Degree of growth inhibition ([8]; 0.0125 %) | Degree of growth inhibition ([8]; 0.025 %) | Percentage of healthy seedlings at 0.25 g/box [9] [%] | Degree of propagation (fungi) | Degree of propagation (green algae) | Degree of propagation [10] | width of the region of growth-inhibition (Staphylococcus oureus) [mm] | width of the region of growth-inhibition (Aspergillus niger [11]) [mm] | width of the region of growth-inhibition (Bacillus subtilis [12]) [mm] | width of the region of growth-inhibition (Penicillium Citrinum [13]) [mm] | also measured |
| --- | --- | --- | --- | --- | --- | --- | --- | --- | --- | --- | --- | --- |
| O=C(NC=C(Cl)Cl)c1ccccc1[O-].O=C(NC=C(Cl)Cl)c1ccccc1[O-].[Cu+2] [compound 26] | Nil |  |  |  |  |  |  |  |  |  |  | Percentage of healthy seedlings [1]: 58.0%; Degree of growth inhibition ([2]; 0.0125 %): 3; Degree of growth inhibition ([2]; 0.025 %): 3; Effect Index ([3]; 1,000 ppm, 2 weeks after inoculation): 47.5; minimum inhibitory concentration (Escherichia coli): 60 mc g/ml; minimum inhibitory concentration (Cladosporium harbarum): 5 mc g/ml; minimum inhibitory concentration (Staphylococcus aureus): 5 mc g/ml; minimum inhibitory concentration (Aspergillus niger [4]): 10 mc g/ml; minimum inhibitory concentration (Bacillus subtilis [5]): 5 mc g/ml; minimum inhibitory concentration (Penicillium Citrinum [6]): 10 mc g/ml; Percentage of healthy seedlings ([7]; 1,000 ppm): 100% |
| O=C(CCl)Oc1ccccc1C(=O)NC=C(Cl)Cl [compound 13] | Nil | 2 | 3 | 62 | - | - | - | 6 | 6 | 7 | 7 | pest or weed control at 500 ppm ([1]; Fusarium, soil, 336 h, read-out: Percentage of healthy seedlings): 70.5%; pest or weed control at 1000 ppm ([3]; Xanthomonas citri, 336 h, read-out: Effect Index, 1,000 ppm, 2 weeks after inoculation): 67.3%; pest or weed control at 1000 ppm ([7]; Rhizoctonia solani, soil, 240 h, 1,000 ppm, read-out: Percentage of healthy seedlings): 100% |
| O=C(NC=C(Cl)Cl)c1cc(Cl)ccc1O [Compound No. 2, N-(2',2'-dichlorovinyl)-5-chlorosalicylamide] | Nil | 2 | 3 | 72.4 | - | - | - | 10 | 5 | 9 | 5 | Phytotoxicity [14]: Nil; Phytotoxicity [15]: Nil; Effect Index [16]: 79; Infected Index [17]: 11.0 |
